Data as given in US20180249725A1, “ANTIMICROBIAL COMPOSITIONS” (priority 2015, published 2018).
Marks after values point to notes of the source that are not given here.

Columns and labels:
Listeria monocytogenes = Listeria monocytogenes growth in inoculated raw minced beef under modified atmosphere; type: cell-based; settings: for Measured effect on Listeria monocytogenes growth: [(log(CFU/mL) in meat treated with plant extracts) − (log(CFU/mL) control meat (without treatment))]: rosemary/hesperidin series added at 1.18% to minced beef, 8° C., 70% O2 and 30% CO2; for Expected effect on Listeria monocytogenes growth (difference of log(CFU/mL) to control meat): rosemary/hesperidin series, calculated from effects of the single extracts
Description: In the course of the work leading to the present method and composition, mixtures of rosemary extract and of hesperidin or of Punica extract, in a number of varying concentration ratios were tested for antilisterial effectiveness using the classical microbiological methods. Bacterial enumeration in all here studied samples was performed on the Aloa medium according to the standardized method (NF EN ISO 11-290). The growth of Listeria monocytogenes was evaluated in meat without any antilisterial agent and without any plant extract (control). The data of listerial growth in a control meat are represented in FIG. 2. […] Following the meat manufacture, a batch of meat was sampled straight after the mincing process and transported in refrigerated conditions to the laboratory. […] Any further supplementation to the meat was conducted in such a laboratory. […] Plant extracts were in powder form and were added as such to the meat. To keep them as dry powders, plant extracts were supplemented with maltodextrin prior to drying process. […] Control meat pieces, without extract treatment, followed the same procedure. […] Packaged meat was stored in the dark for a stated amount of time. A series of experiments involving rosemary and hesperidin extracts, rosemary and Punica extracts, typical antilisterial compounds (Sodium lactate or Sodium acetate) and untreated control were conducted. Mixtures or alone extracts of rosemary and of hesperidin were added at 1.18% to the meat. […] Such analyses were conducted on the 0th, 6th and 9th day of storage. The growth of Listeria monocytogenes was evaluated in meat in refrigerated conditions for each extract or compound and for their combinations. […] Logarithmic values of Listerial growth (log CFU/mL) were calculated for each experiment and treatment. Differences of logarithmic values of Listerial growth (log CFU/mL) between the meat treated with plant extracts and the untreated control were calculated to yield a final result. The more negative value was obtained, the higher was the antilisterial effect of the extract or of the combination of extracts. […] (Guide pour la validation de méthodes d'essais microbiologiques et l'évaluation de leur incertitude de mesure dans les domaines de la microbiologie […]'environnement), Schweizerische Eidgenossenschaft, Confédération suisse, Département […]'économie, de la formation et de la recherche DEFR, Document No. 328, April 2013, Rev. 03).

[1] = stored in cold; applied at 300 ppm; cited from earlier work
Listeria = settings: pure form; cited from earlier work

## COc1ccc([C@@H]2CC(=O)c3c(O)cc(O[C@@H]4O[C@H](CO[C@@H]5O[C@@H](C)[C@H](O)[C@@H](O)[C@H]5O)[C@@H](O)[C@H](O)[C@H]4O)cc3O2)cc1O [Hesperidin]
Listeria monocytogenes; surface response methodology (FIG. 4), response difference to control <0.5 log(CFU/mL) as printed, total added to meat not above 1.18%
  Extract proportion in combination that provide antilisterial response in meat: 0.5-48.0%

## O=c1oc2c(O)c(O)cc3c(=O)oc4c(O)c(O)cc1c4c23 [ellagic acid]
[1]
  Antimicrobial effect on raw beef MAP meat: no antimicrobial effect

## COc1ccc([C@@H]2CC(=O)c3c(O)cc(O[C@@H]4O[C@H](CO)[C@@H](O)[C@H](O)[C@H]4O[C@@H]4O[C@@H](C)[C@H](O)[C@@H](O)[C@H]4O)cc3O2)cc1O [neohesperidin]
Listeria
  Effect on Listerial growth in vitro: no effect

## hesperidin
Listeria monocytogenes; after 6 days of growth
  Measured effect on Listeria monocytogenes growth: [(log(CFU/mL) in meat treated with plant extracts) − (log(CFU/mL) control meat (without treatment))]: −0.09 log(CFU/mL)
Listeria monocytogenes; after 9 days of growth
  Measured effect on Listeria monocytogenes growth: [(log(CFU/mL) in meat treated with plant extracts) − (log(CFU/mL) control meat (without treatment))]: −0.64 log(CFU/mL)

## hesperidin [0.5H]
Listeria monocytogenes; after 6 days of growth
  Measured effect on Listeria monocytogenes growth: [(log(CFU/mL) in meat treated with plant extracts) − (log(CFU/mL) control meat (without treatment))]: −0.37* log(CFU/mL)
  Expected effect on Listeria monocytogenes growth (difference of log(CFU/mL) to control meat): −0.045 log(CFU/mL)
Listeria monocytogenes; after 9 days of growth
  Measured effect on Listeria monocytogenes growth: [(log(CFU/mL) in meat treated with plant extracts) − (log(CFU/mL) control meat (without treatment))]: −0.71* log(CFU/mL)
  Expected effect on Listeria monocytogenes growth (difference of log(CFU/mL) to control meat): −0.32 log(CFU/mL)
